Columns and labels:
[1] = tested on: line DC-3F/AD; test: Flow cytometry: intracellular accumulation of adriamycin by cells of the line DC-3F/AD; type: cell-based, Chinese hamster; settings: ADR 50 μM, 5 hours
Source text: Also measured was the effect of the compounds on the intracellular concentration of the cytotoxic agent. In effect, the known compounds for reversing MDR act by increasing the intracellular concentration of cytotoxic agent. This effect is the consequence of inhibiting the action of gP 170 which is responsible for the efflux of the drug.
By measuring that fluorescence, it is thus possible to obtain a relative measurement of the intracellular concentration of ADR.
The cells 500×10^3 per ml were exposed simultaneously to ADR at a fixed concentration (50 μM) and to the tested compounds at various concentrations. After 5 hours' incubation, the intracellular accumulation of ADR was evaluated by FCM. […] The analysis of each of the samples was carried out on a total of 10,000 cells at a rate of 1,000 cells per second.
The results were presented in the form of linear histograms of the intracellular ADR fluorescence.
Expression of the results: for each of the histograms the mean fluorescence per channel (MEAN) was determined by the information system of the apparatus. For all experiments:
a negative control (cells without ADR) fixed the autofluorescence threshold.
a positive control (cells with ADR) determined the MEAN value=MN1.
the "test" tubes (cells with ADR and with compound) were used to determine, for each of the compounds and at each of the concentrations, the MEAN values=MN2.
The results are expressed in the form of variations from the mean fluorescence obtained for each of the "test" tubes (MN2) in relation to the mean fluorescence obtained with the positive control (MNl): VAR-MEAN=MN2-MN1. The parameter expressed is thus the increase in ADR fluorescence in the presence of the tested compounds.

[2] = tested on: line DC-3F/AD; test: Cytotoxicity (Microculture Tetrazolium Assay): reversal of resistance to actinomycin D, line DC-3F/AD; type: cell-based, Chinese hamster; settings: 4 days
Source text: The pharmacological study of the compounds of the present invention consisted first of all in an evaluation in vitro carried out on resistant cells. The parameter measured is the cytotoxicity of the antitumour drug, quantified in the absence and in the presence of the reversing compound.
The cells are distributed on microplates and exposed to the cytotoxic compounds (actinomycin D for line DC-3F/AD and adriamycin for line KB-Al) at 9 concentrations (2 by 2 series dilutions). The compounds tested for their capacity to reverse MDR are added at the same time as the cytotoxic agent.
The cells are then incubated for 4 days. […] The results are expressed as a reversion factor (RF): PG,29 [formula]

| SMILES | VAR-MEAN (increase in ADR fluorescence), line DC-3F/AD ([1]; 1.0 μM compound) | VAR-MEAN (increase in ADR fluorescence), line DC-3F/AD ([1]; 5.0 μM compound) | VAR-MEAN (increase in ADR fluorescence), line DC-3F/AD ([1]; 10 μM compound) | VAR-MEAN (increase in ADR fluorescence), line DC-3F/AD ([1]; […] compound) | Reversion factors (cytotoxicity) with the line DC-3F/AD ([2]; 1 μM compound) | Reversion factors (cytotoxicity) with the line DC-3F/AD ([2]; 5 μM compound) | Reversion factors (cytotoxicity) with the line DC-3F/AD ([2]; 0.5 μM compound) |
| --- | --- | --- | --- | --- | --- | --- | --- |
| C=CCNc1nc(NCC=C)nc(N2CCC(NCC3c4ccccc4CSc4ccccc43)CC2)n1 (racemic) [Example 26, 2,4-diallylamino-6-{4-[((R,S)-6,11-dihydro-dibenzo[b,e]thiepin-11-yl)methylamino]piperidin-1-yl}-1,3,5-triazine] | 4.3 | 33.5 | 32.6 | 17.8 | 6.8 | 866.6 |  |
| C=CCNc1nc(NCC=C)nc(N2CCC(NCC3c4ccccc4NC(=O)c4ccccc43)CC2)n1 (racemic) [Example 27, 2,4-diallylamino-6-{4-[((R,S)-6,11-dihydro-dibenzo[b,e]-6-oxoazepin-11-yl)methylamino]piperidin-1-yl}-1,3,5-triazine] | 0.0 | 2.2 |  | 0.0 | 1.1 | 2.1 |  |
| C=CCNc1nc(NCC=C)nc(N2CCC(NCC3c4ccccc4CS(=O)(=O)c4ccccc43)CC2)n1 (racemic) [Example 32, 2,4-diallylamino-6-{4-[((R,S)-6,11-dihydro-5,5-dioxo-dibenzo[b,e]thiepin-11-yl)methylamino]piperidin-1-yl}-1,3,5-triazine] | 0.0 | 12.4 |  | 1.9 | 1.3 | 27.4 |  |
| C=CCNc1nc(NCC=C)nc(N2CCN(C3c4ccccc4CCc4ccccc43)CC2)n1 [Example 1, 2,4-Diallylamino-6-{4-(10,11-dihydro-5H-dibenzo[a,d]cyclohepten-5-yl)piperazin-1-yl}-1,3,5-triazine] | 8.4 | 16.0 | 19.3 | 4.9 | 27 | 309 |  |
| C=CCNc1nc(NCC=C)nc(NCCN2CCN(C3c4ccccc4CCc4ccccc43)CC2)n1 [Example 2, 2,4-Diallylamino-6-{2-[4-(10,11-dihydro-5H-dibenzo[a,d]cyclohepten-5-yl)piperazin-1-yl]ethylamino}-1,3,5-triazine] | 10.1 | 10.2 | 10.5 | 14.7 | 1 |  | 0.8 |
| C=CCNc1nc(NCC=C)nc(N2CCC(NC3c4ccccc4CCc4ccccc43)CC2)n1 [Example 4, 2,4-diallylamino-6-[4-(10,11-dihydro-5H-dibenzo[a,d]cyclohepten-5-ylamino)piperidin-1-yl]-1,3,5-triazine] | 16.2 | 25.5 | 28.1 | 21.8 | 66 | 755 | 21 |
| C=CCNc1nc(NCC=C)nc(NCC(O)CN2CCN(C3c4ccccc4CCc4ccccc43)CC2)n1 (stereo not drawn) [Example 6, 2,4-diallylamino-6-{3-[4-(10,11-dihydro-5H-dibenzo[a,d]cyclohepten-5-yl)piperazin-1-yl]-2-hydroxypropylamino}-1,3,5-triazine] | 11.0 | 24.3 | 27.6 | 14.4 | 1.1 |  | 0.9 |
| C=CCNc1nc(NCC=C)nc(NCC2CCN(C3c4ccccc4CCc4ccccc43)CC2)n1 [Example 7, 2,4-diallylamino-6-{[1-(10,11-dihydro-5H-dibenzo[a,d]cyclohepten-5-yl)piperidin-4-yl]methylamino}-1,3,5-triazine] | 3.4 | 10.1 | 17.4 | 3.9 | 1.1 | 9.7 | 1.2 |
| C=CCNc1nc(NCC=C)nc(NCC2CCN(CC3c4ccccc4CCc4ccccc43)CC2)n1 [Example 8, 2,4-diallylamino-6-{[1-[(10,11-dibenzo[a,d]cyclohepten-5-yl)methyl]piperidin-4-yl]methylamino}-1,3,5-triazine] | 1.3 | 19.3 | 21.0 | 11.4 | 1.6 | 353 | 0.8 |
| C=CCNc1nc(NCC=C)nc(N2CCC(NCC3c4ccccc4Oc4ccccc43)CC2)n1 [Example 9, 2,4-diallylamino-6-[4-(xanthen-9-ylmethylamino)-piperidin-1-yl]-1,3,5-triazine] | 13.4 | 19.4 | 25.7 | 18.1 | 39 | 844 | 4.8 |
| C=CCNc1nc(NCC=C)nc(N2CCC(NCC34CCC(c5ccccc53)c3ccccc34)CC2)n1 [Example 10, 2,4-diallylamino-6-{4-[(9,10-dihydro-9,10-ethanoanthracen-9-yl)methylamino]piperidin-1-yl}-1,3,5-triazine] | 12.3 | 20.2 | 30.7 | 13.5 | 1.9 | 96 | 1 |
| C=CCNc1nc(NCC=C)nc(NCCN2CCC(NC3c4ccccc4CCc4ccccc43)CC2)n1 [Example 12, 2,4-diallylamino-6-{2-[4-(10,11-dihydro-5H-dibenzo[a,d]cyclohepten-5-ylamino)piperidin-1-yl]ethylamino}-1,3,5-triazine] | 5.4 | 10.4 | 18.3 | 10.3 | 0.9 | 64 | 0.9 |
| C=CCNc1nc(NCC=C)nc(N2CCC(NCC3c4ccccc4-c4ccccc43)CC2)n1 [Example 13, 2,4-diallylamino-6-{4-[(fluoren-9-yl)methylamino]piperidin-1-yl}-1,3,5-triazine] | 8.1 | 19.6 | 23.2 | 12.0 | 7.1 | 170 | 2.1 |
| CNc1nc(NC)nc(N2CCC(NCC3c4ccccc4CCc4ccccc43)CC2)n1 [Example 14, 2,4-dimethylamino-6-{4-[(10,11-dihydro-5H-dibenzo[a,d]cyclohepten-5-yl)methylamino]piperidin-1-yl}-1,3,5-triazine] | 12.3 | 29.4 | 30.6 | 14.5 | 7.8 | 187 | 1.3 |

From US5238936A, “Trisubstituted triazines” (Adir et Compagnie, priority 1991, dated 1993)
